Entries after “also recorded” stand apart in the source; their conditions may differ.
Experiments:
Assay type in all cases: in vivo
C57BL/6J mice = assay: EEG/EMG sleep recording after adenosine microinjection into V1 visual cortex
Description: Adenosine was injected locally in the V1 cortex of mice to illustrate that the increase in the concentration of adenosine in the visual cortex could improve the sleep amount of mice. The administration cannulas were implanted in bilateral V1 brain regions of C57BL/6J mice, and the mice were placed in the sleep recording cage after about 10 days of surgical recovery. After 3 days of adaptation, the artificial cerebrospinal fluid (ACSF), adenosine of 1.5 nmol/side or adenosine 4.5 nmol/side was microinjected into the V1 visual cortex at the beginning of the dark phase on days 1, 4 and 7 (the administration order was random, and the injection volume was 2 μl/side), respectively; and the EEG/EMG of mice was recorded.

CD73-KO mice = assay: Nocturnal movement activity after 40 Hz light flicker
Description: Thus, we speculated that the 40 Hz light flicker stimulus can regulate sleep rhythm. We firstly exposed the wild-type C57BL/6J mice to light flickers at different frequencies in the last 30 minutes of the daytime phase (19:30-20:00), and then monitored the nocturnal movement activity of the mice, thereby reflecting the sleep-wake states of the mice indirectly. […] We then intraperitoneally injected CD73-KO mice with the […] transporter inhibitor Dipyridamole (Dipyr) at 15 mg/kg. […] Meanwhile, we also intraperitoneally injected CD73-KO mice with the adenosine Al receptor activity antagonist 8-Cyclopentyl-1,3-dipropyl-1H-purine-2,6(3H,7H)-dione (DPCPX) at 6 mg/kg.

[1] = tested on: adenosine in the visual cortex (V1); assay: UPLC detection of total adenosine concentration in the visual cortex of mice; conditions: mice visual cortex V1, Dipyridamole 6 mg/kg intraperitoneal, 30 min before illumination
Description: The total concentration of adenosine in the visual cortex of mice was detected by ultra-high performance liquid chromatography (which is reported including 95% extracellular adenosine and 5% intracellular adenosine in literature). Dipyridamole (Dipyr) (a 6 mg/kg adenosine transporter inhibitor) dissolved in 0.5% methylcellulose was intraperitoneally injected 30 minutes before illumination, while the control group was given 0.5% methylcellulose. 30 minutes after the injection, the blank control group and the Dipyridamole group were illuminated for 30 minutes by the light flicker stimulus with the illuminance of 3000 lux, the duty ratio of 50% and the strobe of 40 Hz (referred to as “40 Hz light flicker stimulus” hereinafter). After illumination, the materials were sampled, weighed and rapidly frozen in liquid nitrogen immediately. After the sample processing, the peak value at about 2.0 was detected on machine with reference to the parameters of the standard substance, and the area under the curve at this moment was taken as the concentration of adenosine in the sample. Finally, the concentration of adenosine was obtained after checking the sample quality and calibrating.

[2] = 4.5 nmol/side microinjected into V1, mice

SMILES: Nc1ncnc2c1ncn2[C@@H]1O[C@H](CO)[C@@H](O)[C@H]1O [adenosine]
- sleep amount compared to the control group (ACSF) (C57BL/6J mice; 1.5 nmol/side microinjected into V1, mice): tendency to promote sleep but no significant difference
- amount of the non-rapid eye movement sleep in the dark phase (C57BL/6J mice; [2]): 3 h
- non-rapid eye movement sleep amount compared to the control group (ACSF) (C57BL/6J mice; [2]): significantly increases
- total sleep amount of mice (C57BL/6J mice; adenosine injection into the visual cortex, 1.5 and 4.5 nmol/side): concentration-dependent increase

SMILES: OCCN(CCO)c1nc(N2CCCCC2)c2nc(N(CCO)CCO)nc(N3CCCCC3)c2n1 [Dipyridamole]
- movement inhibition effect induced by the 40 Hz light flicker (CD73-KO mice; 15 mg/kg intraperitoneal, 15 mg/kg): blocks the movement inhibition effect; also recorded: completely disappeared
- total concentration of intracellular and extracellular adenosine [1]: effectively inhibit

SMILES: CCCn1c(=O)c2[nH]c(C3CCCC3)nc2n(CCC)c1=O [DPCPX, 8-Cyclopentyl-1,3-dipropyl-1H-purine-2,6(3H,7H)-dione]
- movement inhibition effect caused by the 40 Hz light flicker (CD73-KO mice; 6 mg/kg intraperitoneal, 6 mg/kg): block the movement inhibition effect
